Experimental data: patent US10085966B2, “Compositions and methods for skin care” (Antipodean Pharmaceuticals, Inc., priority 2008, dated 2018)

Legend:
Assay type in all cases: cell-based
[1] = system: human skin fibroblasts; assay: ROS production by human skin fibroblasts in collagenase-fragmented three-dimensional collagen lattices; details: 1 nM, relative to controls (FIG. 2)
Description: (§1) In photoaged human skin in vivo, skin wrinkling was accompanied by elevated collagenase levels that stimulated collagen fragmentation and ROS production. This Example describes an in vitro model of skin collagen fragmentation that was created and tested for the effects of antioxidant compounds. Materials and methods for preparing three-dimensional extracellular matrix (ECM) collagen lattices, for culturing skin fibroblasts and keratinocytes thereupon, and for treating such matrices with, and characterizing the effects on them of, matrix metalloproteinases (MMPs) have been described (see, e.g., Pilcher et al., 1997 J. Cell Biol. 137:1445; Notary et al., 2000 J. Cell Biol. 149:1309; Netzel-Arnett et al., 2002 J. Biol. Chem. 277:45154; Fisher et al., 2002 Arch Dermatol. 138:1462; Kang et al., 2003 J. Invest. Dermatol. 120:835; Xu et al., 2006 Am J Pathol. 169:823; Xu et al., 2006 J Biol. Chem 281:27389).
(§2) Human skin fibroblasts were cultured in three-dimensional collagen lattices, which mimicked the dermal extracellular matrix. In intact collagen lattices, dermal fibroblasts spread by attachment to the collagen, and produced relatively low levels of the collagenase known as matrix metalloproteinase-1 (MMP1). […]

[2] = system: matrix metalloproteinase-1 (MMP1); assay: MMP1 expression by human skin fibroblasts in collagenase-fragmented three-dimensional collagen lattices; details: 1 nM, relative to controls (FIG. 3)
Description: as §1, §2

[3] = system: ERK MAP kinase; assay: UV irradiation-induced activation of ERK MAP kinase in cultured human keratinocytes; details: pretreatment of keratinocytes with the indicated concentrations (FIG. 4)
Description: (§3) Ultraviolet (UV) irradiation causes skin photoaging and has been reported to activate mitogen-activated protein (MAP) kinase signal transduction pathways. (Fisher et al., 1998 J. Clin. Invest. 101:1432; Kang et al., 2003 J. Invest. Dermatol. 120:835). The mechanism of UV activation of the epidermal growth factor receptor (EGFR) in such pathways remains unknown, although a role for ROS has been implicated (Xu et al., 2006 Am. J. Pathol. 169:823; Xu et al., 2006 J. Biol. Chem. 281:27389). This Example describes an in vitro model of UV-induced signal transduction in human keratinocytes. Publications describing exemplary materials and methods that were adapted to perform these experiments include e.g., Pilcher et al., 1997 J. Cell Biol. 137:1445; Notary et al., 2000 J. Cell Biol. 149:1309; Netzel-Arnett et al., 2002 J. Biol. Chem. 277:45154; Fisher et al., 2002 Arch Dermatol. 138:1462; Kang et al., 2003 J. Invest. Dermatol. 120:835; Xu et al., 2006 Am J Pathol. 169:823; Xu et al., 2006 J Biol. Chem 281:27389.
(§4) Exposure of cultured human keratinocytes to UV irradiation activated ERK MAP kinase, as evidenced by elevated levels of phosphorylated ERK polypeptide in immunoprecipitates from UV-irradiated keratinocytes relative to untreated control keratinocytes. (FIG. 4)

[4] = system: ERK1; assay: UV irradiation-induced ERK1 phosphorylation in cultured human keratinocytes
Description: as §3, §4

[5] = system: ERK2; assay: UV irradiation-induced ERK2 phosphorylation in cultured human keratinocytes
Description: as §3, §4

[6] = exposure to MitoQ10 (FIG. 4 lower panel)
[7] = incubation of keratinocytes prior to UV irradiation (FIG. 4 upper panel)

COC1=C(OC)C(=O)C(CCCCCCCCCC[P+](c2ccccc2)(c2ccccc2)c2ccccc2)=C(C)C1=O.CS(=O)(=O)[O-] [MitoQ10 mesylate, [10-(4,5-dimethoxy-2-methyl-3,6-dioxo-1,4-cyclohexadien-1-yl)decyl] triphenylphosphonium methanesulfonate]
oxidant (ROS) levels [1]: significantly reduced
matrix metalloproteinase-1 expression, MMP1 mRNA [2]: significantly reduced
matrix metalloproteinase-1 expression, MMP1 protein [2]: significantly reduced
activation of ERK MAP kinase by subsequent UV irradiation [3]: substantially inhibited
amount of Erk1 in the keratinocytes [4, 6]: not altered
ERK1 phosphorylation [4, 7]: significantly reduced
amount of Erk2 in the keratinocytes [5, 6]: not altered
ERK2 phosphorylation [5, 7]: significantly reduced
